Source: patent publication US12006318B2, “Crystalline forms of C-C chemokine receptor type 4 antagonist and uses thereof” (RAPT THERAPEUTICS, INC., priority 2019, dated 2024)
Like-named read-outs stand apart in the source and are kept apart here.

Columns and labels:
[1] = Solubility (kinetic solubility) of salt forms at pH 2; format: physicochemical; conditions: for solubility: in pH 2 water
[2] = Bioavailability of salt forms in rats; format: in vivo; conditions: for bioavailability: in rats
[3] = Hygroscopicity of the crystalline salt; format: physicochemical
[4] = Storage stability at room temperature; format: physicochemical; conditions: after 36 months of storage at room temperature

solubility (in words) ([1]; embodiment statement)	solubility ([1]; water at pH 2, aqueous buffer) [µM]	bioavailability (in words) ([2]; embodiment statement)	bioavailability ([2]; rat, in vivo, read-out: bioavailability) [%]	hygroscopicity [3]	stability on storage [4]	stability on storage ([4]; listed as benzenesulfonic acid salt)	kinetic solubility as fraction of that of the HCl salt ([1]; at pH 2, relative to HCl salt)	solubility [1] [µM]	solubility compared with the amorphous HCl salt ([1]; relative to amorphous HCl salt)	bioavailability [2] [%]	Compound
good solubility	411	good bioavailability	34	low hygroscopicity	outstanding stability	superior stability					C[C@H](c1ccc(Cl)cc1Cl)n1nc(C(F)(F)F)c2ncc(N3CC([C@H]4CCCN(CCO)C4)C3)nc21 [crystalline form A, 2-((R)-3-(1-(1-((R)-1-(2,4-Dichlorophenyl)ethyl)-3-(trifluoromethyl)-1H-pyrazolo[3,4-b]pyrazin-6-yl)azetidin-3-yl)piperidin-1-yl)ethan-1-ol benzene sulfonate]
							⅕	190	less soluble	22	C[C@H](c1ccc(Cl)cc1Cl)n1nc(C(F)(F)F)c2ncc(N3CC([C@H]4CCCN(CCO)C4)C3)nc21.Cc1ccc(S(=O)(=O)O)cc1 [para-toluenesulfonic acid salt]
